Experimental findings from US20180110223A1, “PHENOXY- OR PYRIDIN-2-YLOXY-AMINOTRIAZINE COMPOUNDS AND THEIR USE AS HERBICIDES” (BASF SE, priority 2015, published 2018) are described below.

Holding throughout (format): in vivo
In test [1] the test system is Setaria faberi. In words: greenhouse post-emergence treatment, SETFA. As to conditions: scale from 0 to 100. From the text:
(§1) The culture containers used were plastic flowerpots containing loamy sand with approximately 3.0% of humus as the substrate. The seeds of the test plants were sown separately for each species.
(§2) For the post-emergence treatment, the test plants were first grown to a height of 3 to 15 cm, depending on the plant habit, and only then treated with the active ingredients which had been suspended or emulsified in water. For this purpose, the test plants were either sown directly and grown in the same containers, or they were first grown separately as seedlings and transplanted into the test containers a few days prior to treatment.
(§3) Depending on the species, the plants were kept at 10-25° C. or 20-35° C., respectively.
(§4) The test period extended over 2 to 4 weeks. During this time, the plants were tended, and their response to the individual treatments was evaluated.
(§5) Evaluation was carried out using a scale from 0 to 100. 100 means no emergence of the plants, or complete destruction of at least the aerial moieties, and 0 means no damage, or normal course of growth.
(§6) The plants used in the greenhouse experiments were of the following species: […]

In test [2] the test system is Echinocloa crus-galli. In words: greenhouse post-emergence treatment, ECHCG. The note with it: scale from 0 to 100.
Text: as §1, §2, §3, §4, §5, §6

For test [3], the system named is Abutilon theophrasti. Briefly: greenhouse post-emergence treatment, ABUTH. The note with it: scale from 0 to 100.
Text: as §1, §2, §3, §4, §5, §6

Test [4] concerns Amaranthus retroflexus. Briefly: greenhouse post-emergence treatment, AMARE. The note with it: scale from 0 to 100.
Text: as §1, §2, §3, §4, §5, §6

The next test has as its system Viola arvensis. In words: greenhouse post-emergence treatment, VIOAR. As to conditions: 1000 g/ha, scale from 0 to 100.
Text: as §1, §2, §3, §4, §5, §6

The next test deals with Alopecurus agrestis. In words: greenhouse post-emergence treatment, ALOMY. As to conditions: 500 g/ha, scale from 0 to 100.
Text: as §1, §2, §3, §4, §5, §6

Test [5] relates to Setaria faberi. Briefly: greenhouse pre-emergence treatment, SETFA. The note with it: scale from 0 to 100.
Text: as §1
(§7) For the pre-emergence treatment, the active ingredients, which had been suspended or emulsified in water, were applied directly after sowing by means of finely distributing nozzles. The containers were irrigated gently to promote germination and growth and subsequently covered with transparent plastic hoods until the plants had rooted. This cover caused uniform germination of the test plants, unless this had been impaired by the active ingredients.
as §3, §4, §5, §6

In test [6] the test system is Amaranthus retroflexus. In words: greenhouse pre-emergence treatment, AMARE. As to conditions: scale from 0 to 100.
Text: as §1, §7, §3, §4, §5, §6

Test [7] concerns Echinocloa crus-galli. Briefly: greenhouse pre-emergence treatment, ECHCG. As to conditions: scale from 0 to 100.
Text: as §1, §7, §3, §4, §5, §6

Test [8] has as its system Abutilon theophrasti. Briefly: greenhouse pre-emergence treatment, ABUTH. As to conditions: 1000 g/ha, scale from 0 to 100.
Text: as §1, §7, §3, §4, §5, §6

A further test has as its system Polygonum convolvulus. Briefly: greenhouse post-emergence treatment, POLCO. As to conditions: 125 g/ha, scale from 0 to 100.
Text: as §1, §2, §3, §4, §5, §6

Structures are written as SMILES.

For the molecule `CC(F)c1nc(N)nc(Oc2c(F)c(F)cc(F)c2F)n1` (stereo not drawn) [Example 1, 4-(1-fluoroethyl)-6-(2,3,5,6-tetrafluorophenoxy)-1,3,5-triazin-2-amine], in the test with Setaria faberi [1] (3000 g/ha), the “herbicidal activity against SETFA” value is reported as “very good (a very good herbicidal activity is given at values of at least 85)”. For the same molecule, in the test with Echinocloa crus-galli [2] (3000 g/ha), the “herbicidal activity against ECHCG” value is “very good (a very good herbicidal activity is given at values of at least 85)”. Besides, the “herbicidal activity against ABUTH” value in the test on Abutilon theophrasti [3] (3000 g/ha) is “good (a good herbicidal activity is given at values of at least 70)”. `CC(C)(F)c1nc(N)nc(Oc2c(F)c(F)c(F)c(F)c2F)n1` [Example 2]: the “herbicidal activity against SETFA” value in the test with Setaria faberi [1] (3000 g/ha) was “very good (a very good herbicidal activity is given at values of at least 85)”. Besides, the “herbicidal activity against ECHCG” value with Echinocloa crus-galli [2] (3000 g/ha) was “very good (a very good herbicidal activity is given at values of at least 85)”. Consider `CC(C)(F)c1nc(N)nc(Oc2c(F)ccc(F)c2F)n1` [Example 5], for which the “herbicidal activity against AMARE” value with Amaranthus retroflexus [4] (1000 g/ha) is recorded as “very good (a very good herbicidal activity is given at values of at least 85)”.

For the molecule `CC(F)c1nc(N)nc(Oc2cccc(F)c2F)n1` (stereo not drawn) [Example 7], in the test on Setaria faberi [1] (1000 g/ha), the “herbicidal activity against SETFA” value is on record as “very good (a very good herbicidal activity is given at values of at least 85)”. Moreover, in the test with Echinocloa crus-galli [2] (1000 g/ha), the “herbicidal activity against ECHCG” value is “very good (a very good herbicidal activity is given at values of at least 85)”.

For `CC(F)c1nc(N)nc(Oc2c(F)ccc(F)c2F)n1` (stereo not drawn) [Example 8], the “herbicidal activity against SETFA” value with Setaria faberi [1] (1000 g/ha) is given as “very good (a very good herbicidal activity is given at values of at least 85)”. The “herbicidal activity against AMARE” value in the test with Amaranthus retroflexus [4] (1000 g/ha) is listed as “very good (a very good herbicidal activity is given at values of at least 85)”. In the test with Viola arvensis, the “herbicidal activity against VIOR” value is “very good (a very good herbicidal activity is given at values of at least 85)”. Take `CC(F)c1nc(N)nc(Oc2c(F)cc(F)c(F)c2F)n1` (stereo not drawn) [Example 9]: the “herbicidal activity against SETFA” value in the test with Setaria faberi [1] (1000 g/ha) is given as “very good (a very good herbicidal activity is given at values of at least 85)”. Further, in the test on Amaranthus retroflexus [4] (1000 g/ha), the “herbicidal activity against AMARE” value is reported as “very good (a very good herbicidal activity is given at values of at least 85)”. Also, the “herbicidal activity against VIOR” value in the test with Viola arvensis is reported as “very good (a very good herbicidal activity is given at values of at least 85)”. As for `Nc1nc(Oc2c(F)cc(F)c(F)c2F)nc(C(F)(F)F)n1` [Example 11], in the test with Setaria faberi [1] (1000 g/ha), the “herbicidal activity against SETFA” value is listed as “very good (a very good herbicidal activity is given at values of at least 85)”. Regarding `CCC(C)(F)c1nc(N)nc(Oc2c(F)cc(F)c(F)c2F)n1` (stereo not drawn) [Example 19], in the test on Amaranthus retroflexus [4] (500 g/ha), the “herbicidal activity against AMARE” value is reported as “very good (a very good herbicidal activity is given at values of at least 85)”. Take `CC(C)(C#N)c1nc(N)nc(Oc2c(F)c(F)c(F)c(F)c2F)n1` [Example 22]: in the test with Alopecurus agrestis, the “herbicidal activity against ALOMY” value is reported as “good (a good herbicidal activity is given at values of at least 70)”.

For `CCC(F)c1nc(N)nc(Oc2c(F)cc(F)c(F)c2F)n1` (stereo not drawn) [Example 23], in the test on Setaria faberi [5] (1000 g/ha), the “herbicidal activity against SETFA” value is given as “very good (a very good herbicidal activity is given at values of at least 85)”. Also, the “herbicidal activity against AMARE” value in the test with Amaranthus retroflexus [6] (1000 g/ha) is recorded as “very good (a very good herbicidal activity is given at values of at least 85)”. For the same molecule, in the test on Echinocloa crus-galli [7] (1000 g/ha), the “herbicidal activity against ECHCG” value is “very good (a very good herbicidal activity is given at values of at least 85)”.

Turning to `CCC(F)c1nc(N)nc(Oc2c(F)c(F)c(F)c(F)c2F)n1` (stereo not drawn) [Example 24], the “herbicidal activity against SETFA” value in the test on Setaria faberi [5] (1000 g/ha) is reported as “very good (a very good herbicidal activity is given at values of at least 85)”. Also, the “herbicidal activity against ABUTH” value in the test with Abutilon theophrasti [8] was “very good (a very good herbicidal activity is given at values of at least 85)”. Besides, the “herbicidal activity against ECHCG” value with Echinocloa crus-galli [7] (1000 g/ha) is reported as “very good (a very good herbicidal activity is given at values of at least 85)”. Take `Nc1nc(Oc2c(F)cc(F)c(F)c2F)nc(-c2cccs2)n1` [Example 25]: in the test with Echinocloa crus-galli [2] (500 g/ha), the “herbicidal activity against ECHCG” value is “good (a good herbicidal activity is given at values of at least 70)”. `Nc1nc(Oc2c(F)cc(F)c(F)c2F)nc(-c2ccc(Cl)s2)n1` [Example 27]: the “herbicidal activity against AMARE” value in the test with Amaranthus retroflexus [4] (500 g/ha) is “herbicidal activity”. On to `Cc1ccc(-c2nc(N)nc(Oc3c(F)cc(F)c(F)c3F)n2)o1` [Example 32], for which the “herbicidal activity against ABUTH” value in the test on Abutilon theophrasti [3] (1000 g/ha) is “very herbicidal activity”. As for `Nc1nc(Oc2c(F)cc(F)c(F)c2F)nc(C2CCCO2)n1` (stereo not drawn) [Example 33], the “herbicidal activity against POLCO” value with Polygonum convolvulus was “very good (a very good herbicidal activity is given at values of at least 85)”. As for `Nc1nc(Oc2c(F)cc(F)c(F)c2F)nc([C@H]2CCCO2)n1` [Example 34], the “herbicidal activity against SETFA” value in the test with Setaria faberi [5] (500 g/ha) is recorded as “good (a good herbicidal activity is given at values of at least 70)”. Also, in the test with Amaranthus retroflexus [6] (500 g/ha), the “herbicidal activity against AMARE” value was “good (a good herbicidal activity is given at values of at least 70)”.

With `Nc1nc(Oc2c(F)cc(F)c(F)c2F)nc([C@@H]2CCCO2)n1` [Example 35], the “herbicidal activity against AMARE” value with Amaranthus retroflexus [4] (500 g/ha) is “good (a good herbicidal activity is given at values of at least 70)”. For the molecule `Cc1ncoc1-c1nc(N)nc(Oc2c(F)cc(F)c(F)c2F)n1` [Example 38], the “herbicidal activity against ECHCG” value in the test with Echinocloa crus-galli [2] (1000 g/ha) was “good (a good herbicidal activity is given at values of at least 70)”. `CC(F)c1nc(N)nc(Oc2c(F)c(F)c(F)c(I)c2F)n1` (stereo not drawn) [Example 39]: the “herbicidal activity against SETFA” value in the test with Setaria faberi [1] (500 g/ha) was “very good (a very good herbicidal activity is given at values of at least 85)”. Further, the “herbicidal activity against ECHCG” value with Echinocloa crus-galli [2] (500 g/ha) is “good (a good herbicidal activity is given at values of at least 70)”. Take `CC(C)C(F)c1nc(N)nc(Oc2c(F)cc(F)c(F)c2F)n1` (stereo not drawn) [Example 42]: the “herbicidal activity against SETFA” value in the test on Setaria faberi [5] (500 g/ha) is recorded as “very good (a very good herbicidal activity is given at values of at least 85)”. Besides, the “herbicidal activity against AMARE” value in the test with Amaranthus retroflexus [6] (500 g/ha) is “good (a good herbicidal activity is given at values of at least 70)”. Besides, in the test on Echinocloa crus-galli [7] (500 g/ha), the “herbicidal activity against ECHCG” value is “good (a good herbicidal activity is given at values of at least 70)”.
